Test results taken from article PMC12586598, “A novel long-acting C5a-blocking cyclic peptide prevents sepsis-induced organ dysfunction via effective blockade of the inflammatory cascade” (Signal Transduction and Targeted Therapy, 2025).
Where a SMILES comes first, the peptide text is derived from it.

How the values were obtained:
normal mice = experiment: Systemic safety evaluation in normal mice; type: in vivo; details: 100 μg/20 g i.v., 24 h
Description: The cytotoxic potential of cyclic-peptides was evaluated in HUVECs and RAW 264.7 cells. Cells were incubated with serially diluted Cp1 (1 pg-100 μg/mL) for 24 hours at 37°C in a 5% CO₂ humidified atmosphere, followed by cell viability assessment using CCK-8 kit (Dojindo, Japan). For systemic safety evaluation, whole blood samples were collected for hematological analysis, biochemistry analysis and inflammatory profiling analysis. Following euthanasia, major organs were harvested, fixed and processed for H&E staining.

CLP-induced septic mice = experiment: Endothelial injury biomarkers and capillary leakage in CLP mice; type: in vivo, mouse; details: 24 h post-CLP surgery
Description: To evaluate microvascular leakage in the murine abdominal cavity, the mice received 100 μg of Cp1 via intravenous administration one hour after CLP surgery. Subsequently, 200 μL of 0.25% (w/v) Evans blue dye was injected intravenously for permeability quantification. Twenty-four hours later, the plasma and peritoneal lavage fluid (PLF) of the mice were collected and subjected to spectrophotometric measurement at 620 nm. To exclude hemoglobin interference, the serum absorbance values were corrected via the following formula: corrected A620 = A620 − (A405 × 0.014).[40] Vascular permeability was quantified by the A620 ratio of PLF to serum. To assess capillary leakage in pulmonary tissues, human plasma albumin (HSA) (1 mg/75 μL) was injected intravenously after CLP surgery and Cp1 administration. Twenty-four hours later, the HSA in the bronchoalveolar lavage fluid (BALF) and plasma samples was quantified via a HAS ELISA Kit (Cusabio, Wuhan), and the lung permeability index was calculated as the ratio of the HAS in the BALF to that in the plasma.
The cecal ligation and puncture (CLP) model was established in male C57BL/6 mice (9-10 weeks old). Briefly, a midline laparotomy was performed to exteriorize the cecum under general anesthesia. The cecum was ligated at the distal three-quarters using sutures. Subsequently, a single through-and-through puncture was made in the ligated segment using a 22-gaμge needle, followed by small volume of fecal content was gentle extrusion. The cecum was then repositioned within abdominal cavity, and the laparotomy incision was closed in layers. All animals were administered 1 mL of sterile saline for postoperative fluid resuscitation. Sham-operated controls underwent identical surgical procedures without cecal ligation or puncture. In this work, mice received administration via intravenous injection 1 hour after CLP surgery. The animal mortality was determined by the presence of confirmed death. […] Blood samples were collected 24 hours after CLP-modeling for hematological analysis (Mindray BC-60R Vet) and biochemical analysis (Mindray BS-240 Vet, China), endothelial injury analysis (Njjcbio, Nanjing) and coagulation analysis (Legene, Beijing). Subsequently, mice were sacrificed to collect the main organs for morphological and pathological analysis.

mouse C5a-desArg = target: T1, mouse C5a-desArg (Mus musculus, UniProt P06684); experiment: SPR binding affinity assay, immobilized mouse C5a-desArg
T1 construct: mouse C5a-desArg (MCE, Shanghai, China); purchased MCE
T1 sequence (P06684 679-754 limits assumed): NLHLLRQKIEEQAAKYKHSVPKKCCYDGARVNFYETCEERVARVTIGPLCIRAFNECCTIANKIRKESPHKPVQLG
Description: Surface plasmon resonance (SPR) analysis was conducted using Biacore 2000 system (GE Healthcare, Germany) at 37°C in running buffer (20 mM Tris-HCl, pH 7.4, 150 mM NaCl, 5 mM KCl, 1 mM MgCl₂, 1 mM CaCl₂). The CM5 sensor chips (GE Healthcare) were activated with NHS/EDC, followed by immobilization of mouse C5a (ACROBiosystems, Beijing, China), human C5a (ACROBiosystems, Beijing, China), mouse C5 (ACROBiosystems, Beijing, China) or mouse C5a-desArg (MCE, Shanghai, China). The peptide-protein interactions were characterized using a concentration-gradient approach (low to high) with a continuous flow rate of 30 μL/min (150 s injection duration). Between analyte concentrations, the sensor surface was regenerated with 10 mM glycine-HCl (pH 2.0; 5 min treatment). Binding and dissociation constants were obtained by globally fitting the data to a 1:1 Langmuir binding model using a Biacore Insight evaluation software (Cytiva, USA).

in vitro = details: C57BL/6, mouse, plasma
Description: The peptides in the plasma were extracted with 15% TFA and quantified via reversed-phase high-performance liquid chromatography (HPLC) (Agilent 1260, USA).

[1] = test system: human peripheral blood mononuclear cells (PBMCs); experiment: RNA sequencing of C5a-stimulated PBMCs; type: cell-based; details: |log2FoldChange| ≥ 1, P < 0.05
Description: Human peripheral mononuclear cells were stimulated with 100 ng/mL of human C5a protein (MCE, China) or a complex of human C5a with Cp1 for 1 h. After RNA extraction, purification and library construction, the Next-Generation Sequencing (NGS) technology was used to perform paire-end (PE) sequencing based on Illumina sequencing platform in Bioprofile Biotechnology Co., Ltd (Shanghai, China). The expression of each gene was calculated and further subjected to differential expression analysis, enrichment analysis and cluster analysis.

PMNs = experiment: Neutrophil phagocytosis (BioParticles and live bacteria), flow cytometry; type: cell-based, human; details: 6 h hC5a stimulation; E. coli and S. aureus BioParticles and live bacteria
Description: To assess the phagocytic function of neutrophils, PMNs were stimulated with hC5a or hC5a/Cp1 complexes for 6 h, followed by incubation with 20 μL of Red E. coli BioParticles™ or Green S. aureus BioParticles™ (Invitrogen, USA) at 37 °C for 0.5 h in the dark.[44] After being washed with precooled PBS and centrifuged (40 × g, 5 min), the samples were subjected to flow cytometric quantification for phagocytosis analysis. For the live bacterial phagocytosis assay, 2 × 10^5 PMNs were prestimulated with 100 ng of hC5a or hC5a/Cp1 complexes for 6 h. The PMNs were incubated with DMAO-labeled E. coli (ATCC 25922) or S. aureus (ATCC 29213) at an MOI (multiplicity of infection) of 10 for 0.5 h at 37 °C in the dark, followed by pretreatment with precooled gentamicin (50 μg/mL). The intracellular fluorescence intensity of PMNs was quantified via flow cytometry.

**Q.** For `CSCC[C@@H]1NC(=O)[C@@H]2CCCN2C(=O)[C@H](CCSC)NC(=O)[C@H](CO)NC(=O)[C@H](Cc2c[nH]cn2)NC(=O)CNC(=O)[C@H](CO)NC(=O)[C@H](Cc2ccccc2)NC(=O)[C@H](CCCNC(=N)N)NC(=O)[C@H](CCC(=O)O)NC(=O)[C@H](Cc2ccccc2)NC(=O)[C@H](C(C)C)NC1=O` [Cp1] (cyclo(HSMPMVFERFSG)), which “hepatorenal toxicity and tissue injury (blood biochemistry, histopathology)” value (normal mice) is on record?
**A.** no hepatorenal toxicity or tissue injury

**Q.** What about the “decrease of circulating E-selectin vs CLP group” value (CLP-induced septic mice; 100 μg/20 g) of the same molecule?
**A.** 71%

**Q.** And the “decrease of circulating PAI-1 vs CLP group” value (CLP-induced septic mice; 100 μg/20 g)?
**A.** 93%

**Q.** What about the “decrease of circulating VCAM-1 vs CLP group” value (CLP-induced septic mice; 100 μg/20 g) of the same molecule?
**A.** 100%

**Q.** What about the “decrease of Evans blue leakage (PLF/Serum)” value (CLP-induced septic mice; vs untreated CLP group) of the same molecule?
**A.** 54%

**Q.** And the “decrease of HAS leakage (BALF/Serum)” value (CLP-induced septic mice; vs untreated CLP group)?
**A.** 83%

**Q.** What about the “reduction in lung wet-to-dry weight ratio (W/D ratio)” value (CLP-induced septic mice; vs untreated CLP group) of the same molecule?
**A.** 85%

**Q.** What about the kon (mouse C5a-desArg; pH 7.4, read-out: Ka vs mC5a-desArg (SPR)) of the same molecule?
**A.** 2490 M⁻¹ s⁻¹

**Q.** And the koff (mouse C5a-desArg; read-out: Kd (dissociation rate) vs mC5a-desArg (SPR))?
**A.** 0.0089 s⁻¹

**Q.** And the remaining at 24 h (in vitro)?
**A.** > 95%

**Q.** What about the “DEGs downregulated after Cp1 preincubation” value [1] of the same molecule?
**A.** 2235

**Q.** What about the “effect on C5a-induced phagocytic impairment in PMNs” value (PMNs) of the same molecule?
**A.** effectively mitigated C5a-induced phagocytic impairment
